Laboratory results taken from DBAASP.
≈ marks a conversion by molar mass, not a printed value. One block for each compound: values may come before it.

Key:
Assay in all cases: ≥ marks a high value that may be exact or a test limit, other limits are often not marked, values filed in µg/mL are converted to µM
[1] = system: Candida albicans ATCC 10231
[2] = system: Enterococcus faecalis PCM 2673
[3] = system: Escherichia coli ATCC 25922
[4] = system: Pseudomonas aeruginosa ATCC 9027
[5] = system: Staphylococcus aureus ATCC 25923
[6] = system: Pseudomonas aeruginosa Ps4
Escherichia coli BL21 = system: Escherichia coli BL21
[7] = system: Pseudomonas aeruginosa PAO1
[8] = system: Staphylococcus aureus ATCC 6538P
[9] = system: Staphylococcus aureus ATCC BAA-41
[10] = system: Staphylococcus epidermidis
[11] = system: Burkholderia cepacia ATCC 25416
Escherichia coli UB1005 = system: Escherichia coli UB1005
[12] = system: Pseudomonas aeruginosa H547
[13] = system: Pseudomonas aeruginosa H744
[14] = system: Pseudomonas aeruginosa K799
[15] = system: Pseudomonas aeruginosa Z61
[16] = system: Salmonella enterica subsp. enterica serovar Typhimurium ATCC 14028s
[17] = system: Pseudomonas aeruginosa H374
[18] = system: Klebsiella aerogenes ATCC 13048
[19] = system: Pseudomonas aeruginosa PA14
[20] = system: Staphylococcus aureus ATCC 29231
[21] = system: Acinetobacter baumannii ATCC 19606
[22] = system: Candida albicans ATCC 90028
[23] = system: Cryptococcus neoformans ATCC 208821
[24] = system: Klebsiella pneumoniae ATCC 700603
[25] = system: Pseudomonas aeruginosa ATCC 27853
[26] = system: Staphylococcus aureus ATCC 43300
[27] = system: Staphylococcus aureus SH1000

MIC [1]: 178 µM (≈ 256 µg/mL)
MIC [2]: ≥ 89 µM
MIC [3]: 178 µM (≈ 256 µg/mL)
MIC [4]: 356 µM (≈ 512 µg/mL)
MIC [5]: > 356 µM
Structure (SMILES): CC[C@H](C)[C@H](NC(=O)[C@H](C)NC(=O)[C@H](CC(=O)O)NC(=O)[C@H](Cc1ccccc1)NC(=O)[C@H](CC(C)C)NC(=O)CN)C(=O)N[C@@H](CCCCN)C(=O)N[C@@H](CCCCN)C(=O)N[C@H](C(=O)N[C@@H](C)C(=O)N[C@@H](CCC(=O)O)C(=O)N[C@@H](CO)C(=O)N[C@@H](Cc1ccccc1)C(N)=O)[C@@H](C)CC [GLFDAIKKIAESF]

MIC [6]: ≥ 157 µM
Structure (SMILES): NC(=O)CC[C@H](NC(=O)[C@H](Cc1c[nH]c2ccccc12)NC(=O)[C@@H](N)Cc1ccccc1)C(=O)N[C@@H](CCCN=C(N)N)C(=O)N[C@@H](CC(N)=O)C(=O)N[C@@H](Cc1c[nH]c2ccccc12)C(=O)N[C@@H](CCCN=C(N)N)C(=O)N[C@@H](Cc1c[nH]c2ccccc12)C(=O)N[C@@H](CCCN=C(N)N)C(=O)N[C@@H](CCCN=C(N)N)C(N)=O [FWQRNWRWRR]

MIC (Escherichia coli BL21): 0.354 µM (≈ 0.632 µg/mL)
MIC [7]: 0.707 µM (≈ 1.26 µg/mL)
MIC [8]: 16 µM (≈ 28.6 µg/mL)
MIC [9]: 16 µM (≈ 28.6 µg/mL)
MIC [10]: 0.5 µM (≈ 0.893 µg/mL)
Structure (SMILES): CC[C@H](C)[C@H](NC(=O)[C@H](CCCCN)NC(=O)[C@H](CCCCN)NC(=O)[C@H](Cc1ccccc1)NC(=O)[C@H](CCCCN)NC(=O)[C@H](CCCCN)NC(=O)[C@H](Cc1c[nH]c2ccccc12)NC(=O)[C@@H](N)CCCCN)C(=O)NCC(=O)N[C@@H](C)C(=O)N[C@H](C(=O)N[C@@H](CC(C)C)C(=O)N[C@@H](CCCCN)C(=O)N[C@H](C(=O)N[C@@H](CC(C)C)C(=O)O)C(C)C)C(C)C [KWKKFKKIGAVLKVL]

MIC [11]: 20.1 µM (≈ 64 µg/mL)
MIC (Escherichia coli UB1005): 0.944 µM (≈ 3 µg/mL)
MIC [12]: 1.26 µM (≈ 4 µg/mL)
MIC [13]: 1.26 µM (≈ 4 µg/mL)
MIC [14]: 1.26 µM (≈ 4 µg/mL)
MIC [15]: 0.944 µM (≈ 3 µg/mL)
MIC [16]: 0.944 µM (≈ 3 µg/mL)
Structure (SMILES): CC[C@H](C)[C@H](NC(=O)CNC(=O)[C@@H](NC(=O)[C@H](CCCCN)NC(=O)[C@H](CCCCN)NC(=O)[C@H](Cc1ccccc1)NC(=O)[C@H](CC(C)C)NC(=O)[C@H](CCCCN)NC(=O)[C@H](Cc1c[nH]c2ccccc12)NC(=O)[C@@H](N)CCCCN)[C@@H](C)CC)C(=O)NCC(=O)N[C@@H](C)C(=O)N[C@H](C(=O)N[C@@H](CC(C)C)C(=O)N[C@@H](CCCCN)C(=O)N[C@H](C(=O)N[C@@H](CC(C)C)C(=O)N[C@H](C(=O)N[C@H](C(=O)NCC(=O)N[C@@H](CC(C)C)C(=O)N1CCC[C@H]1C(=O)N[C@@H](C)C(=O)N[C@@H](CC(C)C)C(=O)N[C@@H](CCCCN)C(=O)N[C@@H](CC(C)C)C(=O)N[C@H](C(=O)N[C@@H](CC(C)C)C(=O)N[C@@H](CCCCN)C(=O)O)[C@@H](C)O)[C@@H](C)O)[C@@H](C)O)C(C)C)C(C)C [KWKLFKKIGIGAVLKVLTTGLPALKLTLK]

MIC (Escherichia coli BL21): 0.5 µM (≈ 0.922 µg/mL)
MIC [7]: 0.707 µM (≈ 1.3 µg/mL)
MIC [8]: 16 µM (≈ 29.5 µg/mL)
MIC [9]: 16 µM (≈ 29.5 µg/mL)
MIC [10]: 0.25 µM (≈ 0.461 µg/mL)
Structure (SMILES): CC[C@H](C)[C@H](NC(=O)[C@H](CCCCN)NC(=O)[C@H](CCCCN)NC(=O)[C@H](Cc1ccccc1)NC(=O)[C@H](CCCCN)NC(=O)[C@H](CCCCN)NC(=O)[C@H](Cc1c[nH]c2ccccc12)NC(=O)[C@@H](N)CCCCN)C(=O)NCC(=O)N[C@@H](CCCCN)C(=O)N[C@H](C(=O)N[C@@H](CC(C)C)C(=O)N[C@@H](CCCCN)C(=O)N[C@H](C(=O)N[C@@H](CC(C)C)C(=O)O)C(C)C)C(C)C [KWKKFKKIGKVLKVL]

MIC [1]: 91.1 µM (≈ 128 µg/mL)
MIC [2]: ≥ 182 µM
MIC [3]: 91.1 µM (≈ 128 µg/mL)
MIC [4]: 365 µM (≈ 512 µg/mL)
MIC [5]: 365 µM (≈ 512 µg/mL)
Structure (SMILES): CC[C@H](C)[C@H](NC(=O)[C@H](CCCCN)NC(=O)[C@H](CCCCN)NC(=O)[C@@H](NC(=O)[C@@H](NC(=O)[C@H](CC(=O)O)NC(=O)[C@H](C)NC(=O)[C@H](CC(C)C)NC(=O)CN)[C@@H](C)CC)[C@@H](C)CC)C(=O)N[C@@H](C)C(=O)N[C@@H](CCC(=O)O)C(=O)N[C@@H](CO)C(=O)N[C@@H](Cc1ccccc1)C(N)=O [GLADIIKKIAESF]

MIC [11]: 23.1 µM (≈ 64 µg/mL)
MIC (Escherichia coli UB1005): 0.721 µM (≈ 2 µg/mL)
MIC [17]: 2.88 µM (≈ 8 µg/mL)
MIC [12]: 5.76 µM (≈ 16 µg/mL)
MIC [13]: 2.88 µM (≈ 8 µg/mL)
MIC [14]: 23.1 µM (≈ 64 µg/mL)
MIC [15]: 8.65 µM (≈ 24 µg/mL)
MIC [16]: 15.5 µM (≈ 43 µg/mL)
Structure (SMILES): CC[C@H](C)[C@H](NC(=O)[C@H](Cc1ccccc1)NC(=O)[C@H](CO)NC(=O)[C@H](CCCCN)NC(=O)[C@H](Cc1c[nH]c2ccccc12)NC(=O)[C@@H](N)CCCCN)C(=O)N[C@@H](CCCCN)C(=O)N[C@@H](CCCCN)C(=O)N[C@@H](CC(C)C)C(=O)N[C@H](C(=O)N[C@@H](CO)C(=O)N[C@@H](C)C(=O)N[C@@H](C)C(=O)N[C@@H](CCCCN)C(=O)N[C@@H](CCCCN)C(=O)N[C@H](C(=O)N[C@H](C(=O)N[C@H](C(=O)N[C@@H](C)C(=O)N[C@@H](C)C(=O)N[C@@H](CCCCN)C(=O)N1CCC[C@H]1C(=O)N[C@@H](CC(C)C)C(=O)N[C@H](C(=O)N[C@@H](CCCCN)C(=O)O)[C@@H](C)O)[C@@H](C)O)[C@@H](C)O)C(C)C)[C@@H](C)O [KWKSFIKKLTSAAKKVTTAAKPLTK]

MIC [1]: > 57.2 µM
MIC [18]: ≥ 57.2 µM
MIC [19]: ≥ 57.2 µM
MIC [20]: 28.6 µM (≈ 64 µg/mL)
Structure (SMILES): CC[C@H](C)[C@H](NC(=O)[C@H](CCCCN)NC(=O)[C@H](Cc1c[nH]c2ccccc12)NC(=O)[C@H](CC(C)C)NC(=O)[C@@H](NC(=O)[C@H](CCCCN)NC(=O)[C@H](Cc1c[nH]c2ccccc12)NC(=O)[C@@H](N)CC(C)C)[C@@H](C)CC)C(=O)N[C@@H](Cc1c[nH]c2ccccc12)C(=O)N[C@@H](CCCN=C(N)N)C(=O)N[C@H](C(=O)N[C@@H](CC(C)C)C(=O)N[C@@H](CCCCN)C(=O)N[C@@H](CC(N)=O)C(=O)N[C@@H](Cc1c[nH]c2ccccc12)C(=O)N[C@@H](CCCN=C(N)N)C(=O)O)C(C)C [LWKILWKIWRVLKNWR]

MIC [6]: ≥ 166 µM
Structure (SMILES): CC[C@H](C)[C@H](NC(=O)[C@H](CCCN=C(N)N)NC(=O)[C@@H](NC(=O)[C@H](CC(N)=O)NC(=O)[C@H](CCCN=C(N)N)NC(=O)[C@H](Cc1c[nH]c2ccccc12)NC(=O)[C@@H](N)Cc1ccccc1)[C@@H](C)CC)C(=O)N[C@@H](Cc1c[nH]c2ccccc12)C(=O)N[C@@H](CCCN=C(N)N)C(=O)N[C@@H](CCCN=C(N)N)C(N)=O [FWRNIRIWRR]

MIC [21]: > 22 µM
MIC [22]: 22 µM (≈ 32.2 µg/mL)
MIC [23]: 22 µM (≈ 32.2 µg/mL)
MIC [3]: > 22 µM
MIC [24]: > 22 µM
MIC [25]: > 22 µM
MIC [26]: > 22 µM
MIC [27]: ≥ 33 µM
Structure (SMILES): CC(C)C[C@H](NC(=O)[C@H](C)NC(=O)CNC(=O)[C@@H](NC(=O)[C@@H](NC(=O)[C@H](CCCCN)NC(=O)[C@H](CCCCN)NC(=O)[C@@H](NC(=O)[C@H](CC(C)C)NC(=O)[C@H](CCCCN)NC(=O)[C@H](CC(C)C)NC(=O)[C@H](CC(C)C)NC(=O)[C@@H](N)CCCCN)C(C)C)C(C)C)C(C)C)C(=O)NCC(N)=O [KLLKLVKKVVGALG]

MIC [21]: 1 µM (≈ 1.58 µg/mL)
MIC [22]: 20 µM (≈ 31.6 µg/mL)
MIC [23]: 3 µM (≈ 4.73 µg/mL)
MIC [3]: 20 µM (≈ 31.6 µg/mL)
MIC [24]: > 20 µM
MIC [25]: > 20 µM
MIC [26]: 10 µM (≈ 15.8 µg/mL)
MIC [27]: ≥ 33 µM
Structure (SMILES): CC(C)C[C@H](NC(=O)[C@H](C)NC(=O)[C@H](CCCCN)NC(=O)[C@H](CC(C)C)NC(=O)[C@H](CC(C)C)NC(=O)[C@H](CCCCN)NC(=O)[C@H](CCCCN)NC(=O)[C@H](CC(C)C)NC(=O)[C@H](CC(C)C)NC(=O)[C@H](CCCCN)NC(=O)[C@H](CC(C)C)NC(=O)[C@H](CC(C)C)NC(=O)[C@@H](N)CCCCN)C(=O)NCC(N)=O [KLLKLLKKLLKALG]
